Reference: US10828315B2 (Madrigal Pharmaceuticals, Inc., priority 2013, dated 2020)

Assays:
HER2 = HER2 degradation assay with BT-474 cell line (Example 12, FACS); type: cell-based, human
[1] = Mouse plasma stability protocol, up to 1 h (Examples 16-18)
[2] = % Remaining of parent after 1 h incubation in mouse plasma at 37° C. (10 μM)

SMILES | IC50 (HER2) | % Remaining (1 h) [1, 2] | % Remaining (1 h) ([1]; mouse plasma, 37° C., 10 μM) | % Remaining (1 h, 37° C.) ([1]; mouse plasma, 37° C.)
CCNC(=O)c1nnc(-c2cc(C(C)C)c(O)cc2O)n1-c1ccc(Oc2ccc(C(=O)N3CCC(N(C)C(=O)Oc4ccc5nc6c(c(CC)c5c4)Cn4c-6cc5c(c4=O)COC(=O)C5(O)CC)CC3)cc2)cc1 (centres unmarked) [SDC-TRAP-0180, 4,11-Diethyl-4-hydroxy-3,14-dioxo-3,4,12,14-tetrahydro-1H-pyrano[3′,4′:6,7]indolizino[1,2-b]quinolin-9-yl (1-(4-(4-(3-(2,4-dihydroxy-5-isopropylphenyl)-5-(ethylcarbamoyl)-4H-1,2,4-triazol-4-yl)phenoxy)benzoyl)piperidin-4-yl)(methyl)carbamate] | 325 nM | 72.4% | 72.4% | 72.4%
CCNC(=O)c1nnc(-c2cc(C(C)C)c(O)cc2O)n1-c1ccc(Oc2ccc(C(=O)N3CCC(C(=O)OC4(CC)C(=O)OCc5c4cc4n(c5=O)Cc5cc6c(CN(C)C)c(O)ccc6nc5-4)CC3)cc2)cc1 (centres unmarked) [SDC-TRAP-0159, 10-((dimethylamino)methyl)-4-ethyl-9-hydroxy-3,14-dioxo-3,4,12,14-tetrahydro-1H-pyrano[3′,4′:6,7]indolizino[1,2-b]quinolin-4-yl-1-(4-(4-(3-(2,4-dihydroxy-5-isopropylphenyl)-5-(ethylcarbamoyl)-4H-1,2,4-triazol-4-yl)phenoxy)benzoyl)piperidine-4-carboxylate] | > 1000 nM | 121% |  | 
CCc1c2c(nc3ccc(OC(=O)N4CCC(Cn5ccc6cc(-n7c(O)nnc7-c7cc(C(C)C)c(O)cc7O)ccc65)CC4)cc13)-c1cc3c(c(=O)n1C2)COC(=O)C3(O)CC (centres unmarked) [SDC-TRAP-0186, 4,11-diethyl-4-hydroxy-3,14-dioxo-3,4,12,14-tetrahydro-1H-pyrano[3′,4′:6,7]indolizino[1,2-b]quinolin-9-yl 4-((5-(3-(2,4-dihydroxy-5-isopropylphenyl)-5-hydroxy-4H-1,2,4-triazol-4-yl)-1H-indol-1-yl)methyl)piperidine-1-carboxylate] | 1620 nM | 57.9% | 57.9% | 57.9%
CCNC(=O)c1nnc(-c2cc(C(C)C)c(O)cc2O)n1-c1ccc(OC2CCN(C(=O)C3CCN(C(=O)Oc4ccc5nc6c(c(CC)c5c4)Cn4c-6cc5c(c4=O)COC(=O)[C@]5(O)CC)C(C)C3)CC2)cc1 (stereo partly drawn) [SDC-TRAP-0213, (S)-4,11-diethyl-4-hydroxy-3,14-dioxo-3,4,12,14-tetrahydro-1H-pyrano[3′,4′:6,7]indolizino[1,2-b]quinolin-9-yl 4-(4-(4-(3-(2,4-dihydroxy-5-isopropylphenyl)-5-(ethylcarbamoyl)-4H-1,2,4-triazol-4-yl)phenoxy)piperidine-1-carbonyl)-2-methylpiperidine-1-carboxylate] | 248 nM | 74.7% |  | 74.7%
Cc1cc(COC(=O)Nc2cccc3c2CN(C2CCC(=O)NC2=O)C3=O)cc(C)c1OC(=O)N1CCN(Cc2ccc(-n3c(O)nnc3-c3cc(C(C)C)c(O)cc3O)cc2F)CC1 (centres unmarked) [SDC-TRAP-0182, 4-((((2-(2,6-dioxopiperidin-3-yl)-1-oxoisoindolin-4-yl)carbamoyl)oxy)methyl)-2,6-dimethylphenyl 4-(4-(3-(2,4-dihydroxy-5-isopropylphenyl)-5-hydroxy-4H-1,2,4-triazol-4-yl)-2-fluorobenzyl)piperazine-1-carboxylate] | 359 nM | 91.9% |  | 
CCNC(=O)c1nnc(-c2cc(C(C)C)c(O)cc2O)n1-c1ccc(OC2CCN(C(=O)CN(C)C(=O)Oc3ccc4nc5c(c(CC)c4c3)Cn3c-5cc4c(c3=O)COC(=O)[C@]4(O)CC)CC2)cc1 [SDC-TRAP-0206, (S)-4,11-diethyl-4-hydroxy-3,14-dioxo-3,4,12,14-tetrahydro-1H-pyrano[3′,4′:6,7]indolizino[1,2-b]quinolin-9-yl (2-(4-(4-(3-(2,4-dihydroxy-5-isopropylphenyl)-5-(ethylcarbamoyl)-4H-1,2,4-triazol-4-yl)phenoxy)piperidin-1-yl)-2-oxoethyl)(methyl)carbamate] | 321 nM | 68.6% |  | 68.6%
CCNC(=O)c1nnc(-c2cc(C(C)C)c(O)cc2O)n1-c1ccc(Oc2ccc(N(C)C(=O)Oc3ccc4nc5c(c(CC)c4c3)Cn3c-5cc4c(c3=O)COC(=O)[C@]4(O)CC)cc2)cc1 [SDC-TRAP-0145, (S)-4,11-diethyl-4-hydroxy-3,14-dioxo-3,4,12,14-tetrahydro-1H-pyrano[3′,4′:6,7]indolizino[1,2-b]quinolin-9-yl (4-(4-(3-(2,4-dihydroxy-5-isopropylphenyl)-5-(ethylcarbamoyl)-4H-1,2,4-triazol-4-yl)phenoxy)phenyl)(methyl)carbamate] | 183 nM | 14.1% |  | 14.1%
CCNC(=O)c1nnc(-c2cc(C(C)C)c(O)cc2O)n1-c1ccc(C(=O)N2CCN(C(=O)COC(=O)OC3(CC)C(=O)OCc4c3cc3n(c4=O)Cc4c-3nc3ccc(O)cc3c4CC)CC2)cc1 (centres unmarked) [SDC-TRAP-0202, 4,11-diethyl-9-hydroxy-3,14-dioxo-3,4,12,14-tetrahydro-1H-pyrano[3′,4′:6,7]indolizino[1,2-b]quinolin-4-yl (2-(4-(4-(3-(2,4-dihydroxy-5-isopropylphenyl)-5-(ethylcarbamoyl)-4H-1,2,4-triazol-4-yl)benzoyl)piperazin-1-yl)-2-oxoethyl) carbonate] | > 5000 nM | 21.2% |  | 21.2%
CCNC(=O)c1nnc(-c2cc(C(C)C)c(O)cc2O)n1-c1ccc(Oc2ccc(OC(=O)N(C)CCOC(=O)Nc3cccc4c3CN(C3CCC(=O)NC3=O)C4=O)cc2)cc1 (centres unmarked) | 2860 nM | 51.2% |  | 
CCNC(=O)c1nnc(-c2cc(C(C)C)c(O)cc2O)n1-c1ccc(OC2CCN(C(=O)[C@@H]3CCCN3C(=O)Oc3ccc4nc5c(c(CC)c4c3)Cn3c-5cc4c(c3=O)COC(=O)[C@]4(O)CC)CC2)cc1 [SDC-TRAP-0209] | 1130 nM | 67.1% |  | 67.1%
CCNC(=O)c1nnc(-c2cc(C(C)C)c(O)cc2O)n1-c1ccc(CN2CCC(C(=O)N3CCN(C(=O)Oc4ccc5nc6c(c(CC)c5c4)Cn4c-6cc5c(c4=O)COC(=O)C5(O)CC)C(C)C3)CC2)cc1 (centres unmarked) [SDC-TRAP-0185, 4,11-diethyl-4-hydroxy-3,14-dioxo-3,4,12,14-tetrahydro-1H-pyrano[3′,4′:6,7]indolizino[1,2-b]quinolin-9-yl 4-(1-(4-(3-(2,4-dihydroxy-5-isopropylphenyl)-5-(ethylcarbamoyl)-4H-1,2,4-triazol-4-yl)benzyl)piperidine-4-carbonyl)-2-methylpiperazine-1-carboxylate] | 38 nM | 68.1% | 68.1% | 68.1%
CCc1c2c(nc3ccc(OC(=O)N4CCCCC4C(=O)N4CCC(CCn5ccc6cc(-n7c(O)nnc7-c7cc(C(C)C)c(O)cc7O)ccc65)CC4)cc13)-c1cc3c(c(=O)n1C2)COC(=O)[C@]3(O)CC (stereo partly drawn) [SDC-TRAP-0215, (S)-4,11-diethyl-4-hydroxy-3,14-dioxo-3,4,12,14-tetrahydro-1H-pyrano[3′,4′:6,7]indolizino[1,2-b]quinolin-9-yl 2-(4-(2-(5-(3-(2,4-dihydroxy-5-isopropylphenyl)-5-hydroxy-4H-1,2,4-triazol-4-yl)-1H-indol-1-yl)ethyl)piperidine-1-carbonyl)piperidine-1-carboxylate] | 2750 nM |  |  | 77.2%
CCNC(=O)c1nnc(-c2cc(C(C)C)c(O)cc2O)n1-c1ccc(Oc2ccc(C(=O)N3CCC(OC(=O)OC4(CC)C(=O)OCc5c4cc4n(c5=O)Cc5c-4nc4ccc(O)cc4c5CC)CC3)cc2)cc1 (centres unmarked) [SDC-TRAP-0203, 4,11-Diethyl-9-hydroxy-3,14-dioxo-3,4,12,14-tetrahydro-1H-pyrano[3′,4′:6,7]indolizino[1,2-b]quinolin-4-yl (1-(4-(4-(3-(2,4-dihydroxy-5-isopropylphenyl)-5-(ethylcarbamoyl)-4H-1,2,4-triazol-4-yl)phenoxy)benzoyl)piperidin-4-yl) carbonate] | 446 nM |  |  | 71.2%
CCc1c2c(nc3ccc(O)cc13)-c1cc3c(c(=O)n1C2)COC(=O)[C@@]3(CC)OC(=O)N(C)CCN1CCN(Cc2ccc(-n3c(O)nnc3-c3cc(C(C)C)c(O)cc3O)cc2)CC1 [SDC-TRAP-0087, (S)-4,11-diethyl-9-hydroxy-3,14-dioxo-3,4,12,14-tetrahydro-1H-pyrano[3′,4′:6,7]indolizino[1,2-b]quinolin-4-yl (2-(4-(4-(3-(2,4-dihydroxy-5-isopropylphenyl)-5-hydroxy-4H-1,2,4-triazol-4-yl)benzyl)piperazin-1-yl)ethyl)(methyl)carbamate] | 535 nM |  |  | 
CCNC(=O)c1nnc(-c2cc(C(C)C)c(O)cc2O)n1-c1ccc(C(=O)N2CCN(c3ccc(OC(=O)Nc4cccc5c4CN(C4CCC(=O)NC4=O)C5=O)cc3)CC2)cc1 (centres unmarked) | 254 nM |  |  | 
CCc1c2c(nc3ccc(OC(C)=O)cc13)-c1cc3c(c(=O)n1C2)COC(=O)C3(CC)OC(=O)N1CCN(Cc2ccc(-n3c(O)nnc3-c3cc(C(C)C)c(O)cc3O)cc2)CC1 (centres unmarked) [SDC-TRAP-0074, 9-acetoxy-4,11-diethyl-3,14-dioxo-3,4,12,14-tetrahydro-1H-pyrano[3′,4′:6,7]indolizino[1,2-b]quinolin-4-yl 4-(4-(3-(2,4-dihydroxy-5-isopropylphenyl)-5-hydroxy-4H-1,2,4-triazol-4-yl)benzyl) piperazine-1-carboxylate] | 4120 nM |  |  | 
CCc1c2c(nc3ccc(OC(=O)N4CCC(N5Cc6ccc(-n7c(O)nnc7-c7cc(C(C)C)c(O)cc7O)cc6C5)CC4)cc13)-c1cc3c(c(=O)n1C2)COC(=O)[C@]3(O)CC [SDC-TRAP-0089, (S)-4,11-diethyl-4-hydroxy-3,14-dioxo-3,4,12,14-tetrahydro-1H-pyrano[3′,4′:6,7]indolizino[1,2-b]quinolin-9-yl 4-(5-(3-(2,4-dihydroxy-5-isopropylphenyl)-5-hydroxy-4H-1,2,4-triazol-4-yl)isoindolin-2-yl)piperidine-1-carboxylate] | 1470 nM |  |  | 
